The target of assay [1] is T1, triton-extracted alpha-synuclein from PD Tissue (Homo sapiens, UniProt P37840).
T1 construct: tissue Analytic Biological Services Inc; host or cells: human PD temporal cortex grey matter, Triton X-100 insoluble pellet
Description: Alpha-synuclein tissue homogenate binding assay (Assay 1), displacement of [^3H]-1000. The conditions noted are these: for Selectivity ratio (Assay 2/Assay 1): Aβ Tissue Ki / α-synuclein Tissue Ki; for Ki: read-out: α-synuclein Tissue Ki (Assay 1).

Assay [2] deals with aggregated beta amyloid in AD tissue (Homo sapiens, UniProt P05067). Description: Competitive radioligand binding to pathological aggregated beta amyloid in AD tissue (Assay 2), displacement of [^3H]-105. The following applies: Aβ-rich AD frontal cortex homogenate, [^3H]-105, Kd 11.0 nM.
Chain of aggregated beta amyloid in AD tissue (P05067 672-711 limits assumed): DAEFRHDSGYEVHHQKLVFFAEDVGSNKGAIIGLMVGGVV
Setting [3] is: insoluble fraction of PD brain homogenate, [^3H]-1000 3.0 nM, Kd 0.90 nM.

Read-outs that look alike come from different tables or passages of the source. Where only a bound is given, the exact number is not on record here.

In general, Ki refers to a dissociation constant, usually derived from enzyme kinetics or from competition with a known ligand. Consider `COC[C@H]1CN(c2ncc(/C=C/c3ccc(-c4cnn(CCF)c4)nc3)cn2)CCN1c1ncccn1` [Example 37, (R,E)-5-(2-(6-(1-(2-fluoroethyl)-1H-pyrazol-4-yl)pyridin-3-yl)vinyl)-2-(3-(methoxymethyl)-4-(pyrimidin-2-yl)piperazin-1-yl)pyrimidine], for which the “Selectivity ratio (Assay 2/Assay 1)” value in assay [1] worked out at 1935. The Ki was 0.62 nM in assay [1] (setting [3]) and at least 1200 nM in assay [2].
In the case of `COC[C@H]1CN(c2cc(F)ccn2)CCN1c1ncc(/C=C/c2ccc(-n3ccnc3)nc2)cn1` [Example 17, (R,E)-5-(2-(6-(1H-imidazol-1-yl)pyridin-3-yl)vinyl)-2-(4-(4-fluoropyridin-2-yl)-2-(methoxymethyl)piperazin-1-yl)pyrimidine], the “Selectivity ratio (Assay 2/Assay 1)” value in assay [1] is on record as 13333. The inhibitory constant (Ki) in assay [2] was at least 12000 nM.
In the case of `COC[C@H]1CN(c2ncc(C#Cc3ccc(-n4ccnc4)nc3)cn2)CCN1c1cncc(F)n1` [Example 69, (R)-5-((6-(1H-imidazol-1-yl)pyridin-3-yl)ethynyl)-2-(4-(6-fluoropyrazin-2-yl)-3-(methoxymethyl)piperazin-1-yl)pyrimidine], the “Selectivity ratio (Assay 2/Assay 1)” value in assay [1] was determined as 183. In addition, the Ki is 6.57 nM in assay [1] (setting [3]) and at least 1200 nM in assay [2].
On the same counts, the results for `FCCCOC[C@H]1CN(c2ncc(C#Cc3ccc(-c4cnco4)nc3)cn2)CCN1c1ncncn1` [Example 74, (R)-5-(5-((2-(3-((3-fluoropropoxy)methyl)-4-(1,3,5-triazin-2-yl)piperazin-1-yl)pyrimidin-5-yl)ethynyl)pyridin-2-yl)oxazole] are 618, 1.94 nM and at least 1200 nM.
As for `COCc1cnc(N2CCN(c3ncc(/C=C/c4ccc(-n5ccnc5)nc4)cn3)[C@@H](COC)C2)nc1` [Example 9, (R,E)-5-(2-(6-(1H-imidazol-1-yl)pyridin-3-yl)vinyl)-2-(2-(methoxymethyl)-4-(5-(methoxymethyl)pyrimidin-2-yl)piperazin-1-yl)pyrimidine], in assay [1], the “Selectivity ratio (Assay 2/Assay 1)” value worked out at 15000. The Ki in assay [1] (setting [3]) is 0.8 nM; in assay [2], at least 12000 nM.
Turning to `Cn1cc(-c2ncc(C#Cc3cnc(N4CCN(c5ncccn5)[C@@H](COCCOCCF)C4)nc3)cn2)cn1` [Example 52, (R)-2-(3-((2-(2-fluoroethoxy)ethoxy)methyl)-4-(pyrimidin-2-yl)piperazin-1-yl)-5-((2-(1-methyl-1H-pyrazol-4-yl)pyrimidin-5-yl)ethynyl)pyrimidine], in assay [1], the “Selectivity ratio (Assay 2/Assay 1)” value came to 857 and the inhibitory constant (Ki) was determined as 1.4 nM. Besides, the Ki in assay [2] is at least 1200 nM.
As for `COC[C@H]1CN(c2ncc(/C=C/c3ccc(-n4ccnc4)nc3)cn2)CCN1c1ncccn1` [Example 2, (R,E)-5-(2-(6-(1H-imidazol-1-yl)pyridin-3-yl)vinyl)-2-(3-(methoxymethyl)-4-(pyrimidin-2-yl)piperazin-1-yl)pyrimidine], in assay [1], the “Selectivity ratio (Assay 2/Assay 1)” value is listed as 13333. Besides, the Ki in assay [1] (setting [3]) was 0.9 nM; in assay [2], at least 12000 nM.
In the case of `COC[C@H]1CN(c2cc3cnccn3c2)CCN1c1ncc(/C=C/c2ccc(-n3cccn3)nc2)cn1` [Example 21, (R,E)-7-(4-(5-(2-(6-(1H-pyrazol-1-yl)pyridin-3-yl)vinyl)pyrimidin-2-yl)-3-(methoxymethyl)piperazin-1-yl)pyrrolo[1,2-a]pyrazine], in assay [1], the “Selectivity ratio (Assay 2/Assay 1)” value worked out at 10000 and the Ki was 1.3 nM. In assay [2], the affinity, expressed as Ki, was 13000 nM.
Take `COC[C@H]1CN(c2cnc(C#Cc3ccc(-n4ccnc4)nc3)c(F)n2)CCN1c1ncccn1` [Example 57, (R)-2-(4-(5-((6-(1H-imidazol-1-yl)pyridin-3-yl)ethynyl)-6-fluoropyrazin-2-yl)-2-(methoxymethyl)piperazin-1-yl)pyrimidine]: in assay [1], the “Selectivity ratio (Assay 2/Assay 1)” value is listed as 7. The inhibitory constant (Ki) was 4.41 nM in assay [1] (setting [3]) and 32 nM in assay [2].
For the compound `CNCC1CN(c2cc(F)ncn2)CCN1c1ncc(C#Cc2ccc(-c3cnco3)nc2)cn1` (centres unmarked) [Example 65, 1-(4-(6-fluoropyrimidin-4-yl)-1-(5-((6-(oxazol-5-yl)pyridin-3-yl)ethynyl)pyrimidin-2-yl)piperazin-2-yl)-N-methylmethanamine], the “Selectivity ratio (Assay 2/Assay 1)” value in assay [1] is listed as 1093. Further, the Ki in assay [1] (setting [3]) was 1.1 nM; in assay [2] it was at least 1200 nM.
Turning to `COC[C@H]1CN(c2ncc(C#Cc3cnc(-c4cnn(CCF)c4)nc3)cn2)CCN1c1ncncn1` [Example 46, (R)-2-(4-(5-((2-(1-(2-fluoroethyl)-1H-pyrazol-4-yl)pyrimidin-5-yl)ethynyl)pyrimidin-2-yl)-2-(methoxymethyl)piperazin-1-yl)-1,3,5-triazine], the “Selectivity ratio (Assay 2/Assay 1)” value in assay [1] is listed as 929. The values for the Ki in assay [1] (setting [3]) and in assay [2] were 1.29 nM and at least 1200 nM, respectively.
As to `COC[C@H]1CN(c2ccccn2)CCN1c1ncc(/C=C/c2cnc3nc(C)cn3c2)cn1` [Example 19, (R,E)-6-(2-(2-(2-(methoxymethyl)-4-(pyridin-2-yl)piperazin-1-yl)pyrimidin-5-yl)vinyl)-2-methylimidazo[1,2-a]pyrimidine], the “Selectivity ratio (Assay 2/Assay 1)” value in assay [1] is reported as 8571. In addition, the inhibition constant (Ki) in assay [1] (setting [3]) was 1.4 nM; in assay [2], at least 12000 nM.
As for `OC[C@H]1CN(c2cnccn2)CCN1c1ncc(/C=C/c2ccc(-n3ccnc3)nc2)cn1` [Example 23, (R,E)-(1-(5-(2-(6-(1H-imidazol-1-yl)pyridin-3-yl)vinyl)pyrimidin-2-yl)-4-(pyrazin-2-yl)piperazin-2-yl)methanol], the “Selectivity ratio (Assay 2/Assay 1)” value in assay [1] was found to be 10000. The Ki in assay [1] is 1.2 nM; in assay [2], at least 12000 nM.
On to `FCCOC[C@H]1CN(c2ncc(C#Cc3ccc(N4CCn5cnnc5C4)nc3)cn2)CCN1c1ncncn1` [Example 75, (R)-7-(5-((2-(3-((2-fluoroethoxy)methyl)-4-(1,3,5-triazin-2-yl)piperazin-1-yl)pyrimidin-5-yl)ethynyl)pyridin-2-yl)-5,6,7,8-tetrahydro-[1,2,4]triazolo[4,3-a]pyrazine], for which the “Selectivity ratio (Assay 2/Assay 1)” value in assay [1] is 1312. The Ki was 0.915 nM in assay [1] (setting [3]) and at least 1200 nM in assay [2].
On the same counts, the results for `OC[C@H]1CN(c2ccncn2)CCN1c1ncc(/C=C/c2ccc(-n3ccnc3)nc2)cn1` [Example 24, (R,E)-(1-(5-(2-(6-(1H-imidazol-1-yl)pyridin-3-yl)vinyl)pyrimidin-2-yl)-4-(pyrimidin-4-yl)piperazin-2-yl)methanol] are 240, 0.5 nM and 120 nM.
As for `COC[C@H]1CN(c2cc(F)ccn2)CCN1c1ncc(/C=C/c2ccc(N3CCOCC3)nc2)cn1` [Example 16, (R,E)-4-(5-(2-(2-(4-(4-fluoropyridin-2-yl)-2-(methoxymethyl)piperazin-1-yl)pyrimidin-5-yl)vinyl)pyridin-2-yl)morpholine], the “Selectivity ratio (Assay 2/Assay 1)” value in assay [1] is recorded as 281. The values for the inhibitory constant (Ki) in assay [1] (setting [3]) and in assay [2] were 1.6 nM and 450 nM, respectively.
`COC[C@H]1CN(c2cc(F)ncn2)CCN1c1ncc(/C=C/c2ccc(-n3ccnc3)nc2)cn1` [Example 13, (R,E)-5-(2-(6-(1H-imidazol-1-yl)pyridin-3-yl)vinyl)-2-(4-(6-fluoropyrimidin-4-yl)-2-(methoxymethyl)piperazin-1-yl)pyrimidine]: in assay [1], the “Selectivity ratio (Assay 2/Assay 1)” value amounted to 12000. Moreover, the Ki in assay [1] (setting [3]) is 1 nM; in assay [2], at least 12000 nM.
Consider `COCCOC[C@H]1CN(c2ccccn2)CCN1c1ncc(/C=C/c2ccc(-n3ccnc3)nc2)cn1` [Example 6, (R,E)-5-(2-(6-(1H-imidazol-1-yl)pyridin-3-yl)vinyl)-2-(2-((2-methoxyethoxy)methyl)-4-(pyridin-2-yl)piperazin-1-yl)pyrimidine], for which, in assay [1], the “Selectivity ratio (Assay 2/Assay 1)” value came to 100. The results for the inhibitory constant (Ki) in assay [1] (setting [3]) and in assay [2] were 1.8 nM and 180 nM, respectively.
On to `FCCOC[C@H]1CN(c2ncc(/C=C/c3ccc(-c4cnco4)nc3)cn2)CCN1c1ncccn1` [Example 36, (R,E)-5-(5-(2-(2-(3-((2-fluoroethoxy)methyl)-4-(pyrimidin-2-yl)piperazin-1-yl)pyrimidin-5-yl)vinyl)pyridin-2-yl)oxazole], for which the “Selectivity ratio (Assay 2/Assay 1)” value in assay [1] was 12000. Besides, the Ki is 0.94 nM in assay [1] (setting [3]) and at least 12000 nM in assay [2].
As to `Cn1cc(-c2ncc(C#Cc3cnc(N4CCN(c5ncncn5)[C@@H](COCCF)C4)nc3)cn2)cn1` [Example 44, (R)-2-(2-((2-fluoroethoxy)methyl)-4-(5-((2-(1-methyl-1H-pyrazol-4-yl)pyrimidin-5-yl)ethynyl)pyrimidin-2-yl)piperazin-1-yl)-1,3,5-triazine], the “Selectivity ratio (Assay 2/Assay 1)” value in assay [1] is recorded as 2105. For the same compound, the Ki in assay [1] (setting [3]) was 0.57 nM; in assay [2] it was at least 1200 nM.
In the case of `COC[C@H]1CN(c2ncc(C#Cc3ccc(-c4cnco4)nc3)cn2)CCN1c1ncc(OCCF)cn1` [Example 66, (R)-5-(5-((2-(4-(5-(2-fluoroethoxy)pyrimidin-2-yl)-3-(methoxymethyl)piperazin-1-yl)pyrimidin-5-yl)ethynyl)pyridin-2-yl)oxazole], the “Selectivity ratio (Assay 2/Assay 1)” value in assay [1] is reported as 706. For the same compound, the figures for the Ki in assay [1] (setting [3]) and in assay [2] were 1.7 nM and at least 1200 nM, respectively.
`FCCOCCOC[C@H]1CN(c2ncc(/C=C/c3ccc(-c4cnco4)nc3)cn2)CCN1c1ncncn1` [Example 38, (R,E)-5-(5-(2-(2-(3-((2-(2-fluoroethoxy)ethoxy)methyl)-4-(1,3,5-triazin-2-yl)piperazin-1-yl)pyrimidin-5-yl)vinyl)pyridin-2-yl)oxazole]: in assay [1], the “Selectivity ratio (Assay 2/Assay 1)” value turned out to be 600. The values for the inhibition constant Ki in assay [1] (setting [3]) and in assay [2] were 2 nM and at least 1200 nM, respectively.
For the compound `FCCOC[C@H]1CN(c2ccncc2)CCN1c1ncc(/C=C/c2ccc(-n3ccnc3)nc2)cn1` [Example 31, (R,E)-5-(2-(6-(1H-imidazol-1-yl)pyridin-3-yl)vinyl)-2-(2-((2-fluoroethoxy)methyl)-4-(pyridin-4-yl)piperazin-1-yl)pyrimidine], the “Selectivity ratio (Assay 2/Assay 1)” value in assay [1] worked out at 2600. Also, the figures for the Ki in assay [1] (setting [3]) and in assay [2] were 0.5 nM and 1300 nM, respectively.

The record behind these values is patent publication US20260224758A1, “ALPHA-SYNUCLEIN BINDERS AND METHODS OF USE” (Merck Sharp & Dohme LLC, priority 2023, published 2026).
